# Measurements published in PMC8732328 (Nature microbiology, 2021).
# Test system: all eight Enterococcus or Streptococcus strains
# Test: MIC against eight Enterococcus or Streptococcus strains
# Assay type: cell-based, Enterococcus and Streptococcus spp.
row,Compound,activity against all eight Enterococcus or Streptococcus strains
1,"CN[C@H](CC(C)C)C(=O)N[C@H]1C(=O)N[C@@H](CC(N)=O)C(=O)N[C@H]2C(=O)N[C@H]3C(=O)N[C@H](C(=O)N[C@H](C(=O)O)c4cc(O)cc(O)c4-c4cc3ccc4O)[C@H](O)c3ccc(c(Cl)c3)Oc3cc2cc(c3O[C@@H]2O[C@H](CO)[C@@H](O)[C@H](O)[C@H]2O[C@H]2C[C@](C)(N)[C@H](O)[C@H](C)O2)Oc2ccc(cc2Cl)[C@H]1O [Van, vancomycin]",active
2,lysobactin,active
3,nisin,active
4,ramoplanin,active
